According to ChEMBL document CHEMBL3272037, “Antitumor agents. 21. A proposed mechanism for inhibition of cancer growth by tenulin and helenalin and related cyclopentenones” (J Med Chem, 1977):
In brackets after ≈: the same amount, converted by molar mass. Activity calls are given as the source filed them. The calls are words filed in the database; no cut-off is given here.

Key:
Ehrlich [1] = experiment: Antitumor activity against mouse EAC cells assessed as nuclear DNA polymerase activity at 0.6 mg measured on day 8 relative to control; assay type: functional
[2] = Stability of the compound assessed as reactivity with reduced glutathione at 10 mg after 4 hrs by NMR analysis; assay type: physicochemical
[3] = Binding affinity to DNA (unknown origin) at 0.015 ug at pH 7.2 after 24 hrs by UV-spectrophotometry
Ehrlich [4] = experiment: Antitumor activity against mouse EAC cells allografted in CF1 mouse assessed as cell viability at 0.125 mg/day administered from day 5 to day 7 measured on day 8 by trypan blue assay relative to control; assay type: functional, cell-based
[5] = Stability of the compound assessed as reactivity with oxidized glutathione at 10 mg after 4 hrs by NMR analysis; assay type: physicochemical
Ehrlich [6] = experiment: Antitumor activity against mouse EAC cells allografted in CF1 mouse assessed as nuclear DNA polymerase activity at 0.125 mg/day administered from day 5 to day 7 measured on day 8 relative to control; assay type: functional
[7] = Binding affinity to dAMP (unknown origin) at 0.015 ug by UV-spectrophotometry
P388 = experiment: Antitumor activity against mouse P388 cells allografted in DBA/2 mouse at 25 mg/kg/day, ip relative to control; assay type: functional; details: route intraperitoneal
[8] = Binding affinity to dGTP (unknown origin) at 0.015 ug at pH 7.2 after 24 hrs by UV-spectrophotometry
Ehrlich [9] = experiment: Antitumor activity against mouse EAC cells allografted in CF1 mouse assessed as chromatin protein content at 0.125 mg/day administered from day 5 to day 7 measured on day 8 relative to control; assay type: functional
[10] = Cytotoxicity against human Hep2 cells; assay type: functional; details: HEp-2, read-out: ED50 (the source's name)
[11] = Binding affinity to dGMP (unknown origin) at 0.015 ug at pH 7.2 after 24 hrs by UV-spectrophotometry
Ehrlich [12] = experiment: Antitumor activity against mouse EAC cells allografted in CF1 mouse assessed as [methyl-14C]thymidine incorporation to DNA at 0.125 mg/day administered from day 5 to day 7 measured on day 8 by scintillation counting analysis relative to control; assay type: functional
Ehrlich [13] = experiment: Antitumor activity against mouse EAC cells allografted in CF1 mouse assessed as 3',5' cAMP level at 0.125 mg/day administered from day 5 to day 7 measured on day 8 by RIA relative to control; assay type: functional
Ehrlich [14] = experiment: Antitumor activity against mouse EAC cells allografted in CF1 mouse assessed as tumor growth inhibition at 33.3 mg/kg/day, ip after 7 days; assay type: functional; details: 168 h, route intraperitoneal, read-out: TGI
[15] = Binding affinity to dGMP (unknown origin) by NMR analysis
Ehrlich [16] = experiment: Antitumor activity against mouse EAC cells allografted in CF1 mouse assessed as DNA content at 0.125 mg/day administered from day 5 to day 7 measured on day 8 by UV-spectrophotometry relative to control; assay type: functional
Ehrlich [17] = experiment: Antitumor activity against mouse EAC cells allografted in CF1 mouse assessed as ascitocrit count per mililitre of fluid at 0.125 mg/day administered from day 5 to day 7 measured on day 8 by hemocytometry relative to control; assay type: functional
[18] = Binding affinity to dATP (unknown origin) at 0.015 ug by UV-spectrophotometry
[19] = Stability of the compound assessed as reactivity with L-cysteine at 10 mg after 4 hrs by NMR analysis; assay type: physicochemical
Ehrlich [20] = experiment: Antitumor activity against mouse EAC cells assessed as tissue SH stimulation at 0.6 mg measured on day 8 by Ellman method relative to control; assay type: functional
Ehrlich [21] = experiment: Antitumor activity against mouse EAC cells allografted in CF1 mouse assessed as free lysosomal DNAse activity at 0.125 mg/day administered from day 5 to day 7 measured on day 8 relative to control; assay type: functional
W256 = experiment: Antitumor activity against rat Walker 256 cells allografted in Sprague-Dawley rat at 2.5 mg/kg/day, ip relative to control; assay type: functional; details: route intraperitoneal
Ehrlich [22] = experiment: Antitumor activity against mouse EAC cells allografted in CF1 mouse assessed as [gamma-32P] incorporation into histone at 0.125 mg/day administered from day 5 to day 7 measured on day 8 relative to control; assay type: functional
Ehrlich [23] = experiment: Antitumor activity against mouse EAC cells allografted in CF1 mouse assessed as [gamma-32P] incorporation into nonhistone at 0.125 mg/day administered from day 5 to day 7 measured on day 8 relative to control; assay type: functional
Ehrlich [24] = experiment: Antitumor activity against mouse EAC cells allografted in CF1 mouse assessed as survival at 33.3 mg/kg/day, ip after 7 days; assay type: functional, organism-based
Ehrlich [25] = experiment: Antitumor activity against mouse EAC cells allografted in CF1 mouse assessed as 3',5' cAMP level at 0.25 mg/day administered from day 5 to day 7 measured on day 8 by RIA relative to control; assay type: functional
Ehrlich [26] = experiment: Antitumor activity against mouse EAC cells allografted in CF1 mouse assessed as [gamma-32P] incorporation into histone at 0.25 mg/day administered from day 5 to day 7 measured on day 8 relative to control; assay type: functional
Ehrlich [27] = experiment: Antitumor activity against mouse EAC cells allografted in CF1 mouse assessed as chromatin protein content at 0.25 mg/day administered from day 5 to day 7 measured on day 8 relative to control; assay type: functional
Ehrlich [28] = experiment: Antitumor activity against mouse EAC cells allografted in CF1 mouse assessed as ascitocrit count per mililitre of fluid at 0.25 mg/day administered from day 5 to day 7 measured on day 8 by hemocytometry relative to control; assay type: functional
Ehrlich [29] = experiment: Antitumor activity against mouse EAC cells allografted in CF1 mouse assessed as DNA content at 0.25 mg/day administered from day 5 to day 7 measured on day 8 by UV-spectrophotometry relative to control; assay type: functional
Ehrlich [30] = experiment: Antitumor activity against mouse EAC cells allografted in CF1 mouse assessed as free lysosomal DNAse activity at 0.25 mg/day administered from day 5 to day 7 measured on day 8 relative to control; assay type: functional
Ehrlich [31] = experiment: Antitumor activity against mouse EAC cells allografted in CF1 mouse assessed as [methyl-14C]thymidine incorporation to DNA at 0.25 mg/day administered from day 5 to day 7 measured on day 8 by scintillation counting analysis relative to control; assay type: functional
Ehrlich [32] = experiment: Antitumor activity against mouse EAC cells allografted in CF1 mouse assessed as nuclear DNA polymerase activity at 0.25 mg/day administered from day 5 to day 7 measured on day 8 relative to control; assay type: functional
Ehrlich [33] = experiment: Antitumor activity against mouse EAC cells allografted in CF1 mouse assessed as cell viability at 0.25 mg/day administered from day 5 to day 7 measured on day 8 by trypan blue assay relative to control; assay type: functional, cell-based
[34] = Stability of the compound assessed as reactivity with L-cysteine by NMR analysis; assay type: physicochemical
[35] = Stability of the compound assessed as reactivity with reduced glutathione at 28 mg after 16 hrs by NMR analysis; assay type: physicochemical
[36] = Stability of the compound assessed as reactivity with histidine at 28 mg after 7 days by NMR analysis; assay type: physicochemical; details: 168 h

Structure (SMILES)	Activity (Ehrlich [1]) [%]	Activity [3]	Activity [7]	T/C (P388) [%]	Activity [8]	EC50 [10] [µg/mL]	Activity [11]	inhibition in vivo at 33.3 mg/kg/day (Ehrlich [14]) [%]	Activity [18]	Activity (Ehrlich [20]) [%]	T/C (W256) [%]	Survival (Ehrlich [24])	further results
C=C1C(=O)O[C@@H]2C[C@@H](C)[C@@H]3C=CC(=O)[C@@]3(C)[C@@H](O)[C@H]12 [HELENALIN]	35	inactive	inactive	127	inactive	0.1 (≈ 0.381 µM)	inactive	100	inactive	183	316		Stability [2]: Stable; Activity (Ehrlich [4]): inactive; Stability [5]: Unstable; Activity (Ehrlich [6]): 52%; Activity (Ehrlich [9]): 83%; Activity (Ehrlich [12]): 12%; Activity (Ehrlich [13]): 292%; Activity [15]: inactive; Activity (Ehrlich [16]): 66%; Activity (Ehrlich [17]): 70%; Stability [19]: Stable; Activity (Ehrlich [21]): 25%; Activity (Ehrlich [22]): 30%; Activity (Ehrlich [23]): 63%
C[C@@H]1C[C@@H]2OC(=O)[C@]3(C)[C@@H]2[C@@H](OC3(C)O)[C@]2(C)C(=O)CC(SC[C@H](N)C(=O)O)[C@@H]12 (stereo partly drawn)						13.7 (≈ 32 µM)		15.8				Active	
C[C@@H]1C[C@@H]2OC(=O)[C@]3(C)[C@H]2[C@@H](OC3(C)O)[C@]2(C)C(=O)C=C[C@@H]12 (stereo partly drawn) [TENULIN]	88	inactive	inactive	131	inactive	4.5 (≈ 14.7 µM)	inactive	97.3	inactive	203	266	Active	Activity (Ehrlich [25]): 236%; Activity (Ehrlich [26]): 17%; Activity (Ehrlich [27]): 92%; Activity (Ehrlich [28]): 43%; Activity (Ehrlich [29]): 73%; Activity (Ehrlich [30]): 29%; Activity (Ehrlich [31]): 9%; Activity (Ehrlich [32]): 71%; Activity (Ehrlich [33]): inactive
C[C@@H]1C[C@H]2OC(=O)[C@@H](C)[C@H]2[C@H](O)[C@]2(C)C(=O)C=C[C@@H]12				134		0.814 (≈ 3.08 µM)		100			207	Active	
O=C1C=CCC1						50 (≈ 609 µM)		74.8			188	Active	Stability [34]: Stable; Stability [35]: Stable; Stability [36]: Unstable
Sc1ncnc2nc[nH]c12 [MERCAPTOPURINE ANHYDROUS]								99.4				Active	
